Data taken from publication PMC7478253, “Design, synthesis, and SAR study of isopropoxy allylbenzene derivatives as 15-lipoxygenase inhibitors” (Iranian Journal of Basic Medical Sciences, 2020).
“Also recorded” adds a separate entry of the source. Where two headings read alike, the source gives them in different places.

How the values were obtained:
[1] = biological target: T1, soybean 15-lipoxygenase (SLO; L1; Type I-B; EC 1,13,11,12) (Glycine max, UniProt P08170); assay: SLO enzyme inhibition, peroxide-formation method (substrate linoleic acid); format: biochemical
T1 construct: purchased Sigma Co
T1 sequence (P08170 1-839): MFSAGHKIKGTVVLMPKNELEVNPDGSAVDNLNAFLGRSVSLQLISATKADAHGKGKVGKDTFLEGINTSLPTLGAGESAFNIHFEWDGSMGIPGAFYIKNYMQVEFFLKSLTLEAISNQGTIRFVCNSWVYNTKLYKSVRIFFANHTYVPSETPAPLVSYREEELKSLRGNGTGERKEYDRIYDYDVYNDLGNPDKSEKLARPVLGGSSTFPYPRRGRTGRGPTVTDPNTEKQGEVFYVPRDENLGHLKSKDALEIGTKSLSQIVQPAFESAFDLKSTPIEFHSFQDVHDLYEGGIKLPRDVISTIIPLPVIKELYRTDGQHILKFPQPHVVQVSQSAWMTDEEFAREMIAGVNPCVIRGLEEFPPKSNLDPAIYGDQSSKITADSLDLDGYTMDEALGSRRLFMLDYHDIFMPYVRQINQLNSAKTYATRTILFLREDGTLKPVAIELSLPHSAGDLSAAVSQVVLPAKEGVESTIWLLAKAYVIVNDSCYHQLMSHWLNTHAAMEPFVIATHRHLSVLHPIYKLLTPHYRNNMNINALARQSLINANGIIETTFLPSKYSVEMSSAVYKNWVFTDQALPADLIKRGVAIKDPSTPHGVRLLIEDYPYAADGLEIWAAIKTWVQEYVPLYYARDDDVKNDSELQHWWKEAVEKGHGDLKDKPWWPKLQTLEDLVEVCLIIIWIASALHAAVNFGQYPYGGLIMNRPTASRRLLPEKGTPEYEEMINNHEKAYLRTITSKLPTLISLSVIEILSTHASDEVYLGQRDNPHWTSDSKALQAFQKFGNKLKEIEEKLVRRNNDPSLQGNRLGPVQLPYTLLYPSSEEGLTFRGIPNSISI
Procedure: LA, enzyme and two assay solutions (A and B) were firstly prepared as follow:
LA solution: A mixture of LA (5.6 mg), ethanol (0.5 ml) and KOH (100 mM) to a final volume of 5 ml (6).
The enzyme solution was prepared by dissolving 1 mg lyophilized SLO (L1; Type I-B; EC 1, 13, 11, 12; Sigma Co.) in 5 ml phosphate buffer (50 mM, pH 7.0) and then its activity was checked by diene formation method at 234 nm. Finally, its activity was decreased to desired quantity by dilution with the phosphate buffer.
Solution A: DMAB (3-dimethylaminobenzoic acid) 50 mM in phosphate buffer (100 mM, pH 7.0).
Solution B: A mixture of MBTH (3-methyl-2-benzothiazolonhydrazone) (10 mM, 3 ml) and hemoglobin (5 mg/ml, 3 ml) in 25 ml phosphate buffer (50 mM, pH 5.0).
Assay procedure: the sample solution in dimethyl sulfoxide (25 µl), enzyme solution (4000 units/ml; 25 µl), and phosphate buffer (pH 7.0, 50 mM; 900 µl) were mixed in a test plate and pre-incubated for 5 min at room temperature. Control test was done using the same volume of dimethyl sulfoxide. After pre-incubation, LA solution (50 µl) was added (starting of the peroxidation reaction) and 10 min later, solution A (270 µl) and subsequently solution B (130 µl) were added to start the color formation. 3 min later, 200 µl of sodium dodecyl sulfate solution (2% W/V) was added to terminate the reaction. The absorbance was recorded at 598 nm. Each experiment was performed in triplicate. The data analysis was done in GraphPad Prism 6.0 ([6]).
Lipoxygenase inhibitory activity of the synthetic compounds (substrate: linoleic acid) was assessed by using the peroxide-formation method, according to the published literature ([14], [15]). In this method, measurement of linoleate hydroperoxide concentration is the basis of lipoxygenase activity determination. All the assessments were performed in comparison with 4-MMPB (4-methyl-2-(4-methylpiperazinyl)pyrimido[4,5-b]benzothiazine) as a well-known lipoxygenase inhibitor.

[2] = biological target: T1, soybean 15-lipoxygenase (SLO; L1; Type I-B; EC 1,13,11,12); conditions: cited from earlier work
[3] = biological target: T2, soybean 15-lipoxygenase (SLO) (Glycine max, UniProt P08170); assay: Inhibitory mechanism of SLO inhibition (Michaelis-Menten / Lineweaver-Burk); format: biochemical; conditions: Tris buffer pH 7.2; LA 6.25-100 µM; inhibitor 125, 100 and 75 µM; Lineweaver-Burk plot
T2 construct: purchased Sigma Co
T2 sequence (P08170 1-839): T1 sequence (P08170 1-839)
Procedure: The experiment was done in Tris buffer (pH 7.2, 50 mM). Five concentrations of LA (6.25, 12.5, 25, 50 and 100 µM) were used. The enzyme activity was measured in the absence (control test) and presence of 6f as inhibitor (concentrations 125, 100, and 75 µM).
25 µl of the enzyme solution (4000 unit/ml) was added to mixture of buffer (900 µl) and inhibitor (25 µl) and incubated for 10 min at room temperature. Subsequently, 50 µl of LA solution was added to the mixture to start the reaction. After 10 min, solution A (270 µl) and then solution B (130 µl) were added to start color formation (preparation of solution A and B described in the previous section). 3 min later, 200 µl of a 2% SDS solution was added to terminate the reaction. The absorbance was recorded at 598 nm compared with the control. These experiments were performed in triplicate. Using the reaction rates (Abs.min^-1), both inhibitor and LA concentrations (µM), Michaelis-Menten and Lineweaver-Burk plots were graphed in GraphPad Prism 6.0.
So molecular docking by AutoDockTools could be responsible for finding the probable binding conformation of the inhibitors in active site pocket of SLO.

[4] = substrate linoleic acid, phosphate buffer pH 7.0, absorbance 598 nm, triplicate, read-out: IC50 (SLO inhibition)

| IC50 [1, 4] [µM] | melting point [°C] | SMILES | other results |
| --- | --- | --- | --- |
| 25.2 ± 2.1 | 81 to 83 | C=CCc1cc(NC(=O)C2CCC2)ccc1OC(C)C [Compound 6b, N-(3-allyl-4-isopropoxyphenyl) cyclobutane carboxamide] |  |
| 45.5 ± 8.1 | 78 to 79 | C=CCc1cc(NC(=O)C2CC2)ccc1OC(C)C [Compound 6a, N-(3-allyl-4-isopropoxyphenyl) cyclopropane carboxamide] |  |
| > 100 | 128 to 130 | C=CCc1cc(NC(=O)c2ccccc2)ccc1OC(C)C [Compound 6e, N-(3-allyl-4-isopropoxyphenyl) benzamide] | SLO inhibition, result in words ([1]; substrate linoleic acid): no effect; also recorded: did not show any activity |

Continued, compound first:

| SMILES | IC50 [1, 4] [µM] | melting point [°C] | other results |
| --- | --- | --- | --- |
| C=CCc1cc(NC(=O)C2CCCCC2)ccc1OC(C)C [Compound 6d, N-(3-allyl-4-isopropoxyphenyl) cyclohexane carboxamide] | 3.56 ± 0.21 | 93 to 95 |  |
| C=CCc1cc(NC(=O)C2CCCC2)ccc1OC(C)C [Compound 6c, N-(3-allyl-4-isopropoxyphenyl) cyclopentane carboxamide] | 9.27 ± 1.9 | 88 to 89 |  |
| C=CCc1cc(OC)ccc1OC(C)C [Compound A2, 2-allyl-1-isopropoxy-4-methoxybenzene] |  |  | IC50 ([2]; previous work on 2-alkoxy-5-methoxyallylbenzenes, read-out: IC50 (lipoxygenase inhibition) of A2): 5.9 ± 0.6 µM |
| C=CCc1cc(NC(=O)C23CC4CC(CC(C4)C2)C3)ccc1OC(C)C [Compound 6f, N-(3-allyl-4-isopropoxyphenyl) adamantane carboxamide] |  |  | IC50 [1]: 1.35 ± 0.08 µM; Inhibitory mechanism on SLO [3]: competitive mechanism |
| C=CCOc1ccc(NC(=O)C23CC4CC(CC(C4)C2)C3)cc1CC=C [Compound A1, N-(3-allyl-4-(allyloxy)phenyl) adamantanecarboxamide] |  |  | IC50 ([2]; previous work on N-(3-allyl-4-(allyloxy)phenyl) carboxamides, read-out: IC50 (lipoxygenase inhibition) of A1): 9.8 ± 1.2 µM |
